# Laboratory results from US10577317B2, “Crystal forms and production methods thereof” (Sunovion Pharmaceuticals Inc., priority 2017, dated 2020).
# Read-outs that look alike come from different tables or passages of the source.
# How the values were obtained:
# Type in all cases: physicochemical
# [1] = Solubility (mg/mL) in water, buffers, simulated fluids and organic solvents (Table 1)
# [2] = DVS water sorption isotherm, 25° C. scanned over 0 to 95% relative humidity (hygroscopicity)
# Source text: In various embodiments, the hygroscopicity of crystal forms of racemic amisulpride, enantiomeric amisulpride, and enantiomeric amisulpride solvates are characterized by dynamic vapor sorption (DVS). DVS is a gravimetric technique that measures how much of a solvent is absorbed by a sample by varying the vapor concentration surrounding the sample (e.g., relative humidity) and measuring the change in mass. In the present application, DVS is used to generate water sorption isotherms, which represent the equilibrium amount of vapor sorbed as a function of steady state relative vapor pressure at a constant temperature.
# [3] = Solid form stability on storage at 25° C. and 60% relative humidity; conditions: after 4 months at 25° C. and 60% relative humidity (RH)
# [4] = DVS, 25° C., 0 to 95% relative humidity
smiles,measurement,setting,value
"CCN1CCC[C@@H]1CNC(=O)c1cc(S(=O)(=O)CC)c(N)cc1OC [(R)-amisulpride Form A, R-4-Amino-N-[(1-ethyl-2-pyrrolidinyl)methyl]-5-(ethylsulfonyl)-2-methoxybenzamide]",solubility,"[1]; aqueous buffer, 0.05M Acetate Buffer, solution pH 4.5, read-out: Solubility (mg/mL): 0.05M Acetate Buffer",> 100 mg/mL
same,solubility,"[1]; pH 1.1, Simulated Gastric Fluid (no enzyme), pH adjusted to 1.1 (Form A), 1.2 (Form A′), read-out: Solubility (mg/mL): Simulated Gastric Fluid (no enzyme)",> 100 mg/mL
same,solubility,"[1]; pH 6.7, fassgf or other biorelevant, Simulated Intestinal Fluid (no enzyme), pH adjusted to 6.7 (Form A), 6.9 (Form A′), read-out: Solubility (mg/mL): Simulated Intestinal Fluid (no enzyme)",> 100 mg/mL
same,hygroscopicity,[2]; [4],"substantially non-hygroscopic (less than a 1% maximum mass change in water sorption isotherms, at 25 °C scanned over 0 to 95% relative humidity)"
same,maximum mass change in water sorption isotherms,[2]; [4],0.183%
same,average maximum mass change,"[2]; DVS, average over the samples of Tables 6A-6C (Form A′) or 6D-6E (Form A)",about 0.17%
same,Change Mass,"[2]; FIG. 2D, RH 1.28 %, elapse time 173.0 min",0.000 wt %
same,Change Mass,"[2]; FIG. 2D, RH 5.03 %, elapse time 515.4 min",0.004 wt %
same,Change Mass,"[2]; FIG. 2D, RH 5.05 %, elapse time 854.6 min",0.008 wt %
same,Change Mass,"[2]; FIG. 2D, RH 5.19 %, elapse time 181.6 min",0.004 wt %
same,Change Mass,"[2]; FIG. 2D, RH 9.87 %, elapse time 523.4 min",0.008 wt %
same,Change Mass,"[2]; FIG. 2D, RH 10.07 %, elapse time 189.1 min",0.010 wt %
same,Change Mass,"[2]; FIG. 2D, RH 10.08 %, elapse time 507.4 min",0.010 wt %
same,Change Mass,"[2]; FIG. 2D, RH 10.10 %, elapse time 846.6 min",0.014 wt %
same,Change Mass,"[2]; FIG. 2D, RH 14.89 %, elapse time 531.4 min",0.014 wt %
same,Change Mass,"[2]; FIG. 2D, RH 14.91 %, elapse time 196.6 min",0.017 wt %
same,Change Mass,"[2]; FIG. 2D, RH 15.10 %, elapse time 499.4 min",0.017 wt %
same,Change Mass,"[2]; FIG. 2D, RH 15.15 %, elapse time 838.6 min",0.021 wt %
same,Change Mass,"[2]; FIG. 2D, RH 19.83 %, elapse time 204.6 min",0.024 wt %
same,Change Mass,"[2]; FIG. 2D, RH 19.90 %, elapse time 539.4 min",0.020 wt %
same,Change Mass,"[2]; FIG. 2D, RH 20.10 %, elapse time 491.4 min",0.023 wt %
same,Change Mass,"[2]; FIG. 2D, RH 20.13 %, elapse time 830.5 min",0.028 wt %
same,Change Mass,"[2]; FIG. 2D, RH 24.87 %, elapse time 548.4 min",0.027 wt %
same,Change Mass,"[2]; FIG. 2D, RH 24.89 %, elapse time 483.4 min",0.029 wt %
same,Change Mass,"[2]; FIG. 2D, RH 24.93 %, elapse time 822.5 min",0.033 wt %
same,Change Mass,"[2]; FIG. 2D, RH 24.98 %, elapse time 213.7 min",0.031 wt %
same,Change Mass,"[2]; FIG. 2D, RH 29.88 %, elapse time 222.7 min",0.039 wt %
same,Change Mass,"[2]; FIG. 2D, RH 29.89 %, elapse time 557.4 min",0.034 wt %
same,Change Mass,"[2]; FIG. 2D, RH 30.13 %, elapse time 475.9 min",0.036 wt %
same,Change Mass,"[2]; FIG. 2D, RH 30.15 %, elapse time 815.0 min",0.040 wt %
same,Change Mass,"[2]; FIG. 2D, RH 34.83 %, elapse time 566.4 min",0.042 wt %
same,Change Mass,"[2]; FIG. 2D, RH 34.93 %, elapse time 467.4 min",0.043 wt %
same,Change Mass,"[2]; FIG. 2D, RH 34.94 %, elapse time 806.5 min",0.046 wt %
same,Change Mass,"[2]; FIG. 2D, RH 34.97 %, elapse time 231.7 min",0.046 wt %
same,Change Mass,"[2]; FIG. 2D, RH 39.80 %, elapse time 240.7 min",0.054 wt %
same,Change Mass,"[2]; FIG. 2D, RH 39.88 %, elapse time 457.4 min",0.050 wt %
same,Change Mass,"[2]; FIG. 2D, RH 39.95 %, elapse time 796.5 min",0.053 wt %
same,Change Mass,"[2]; FIG. 2D, RH 39.99 %, elapse time 577.4 min",0.049 wt %
same,Change Mass,"[2]; FIG. 2D, RH 44.82 %, elapse time 249.7 min",0.061 wt %
same,Change Mass,"[2]; FIG. 2D, RH 44.93 %, elapse time 586.4 min",0.056 wt %
same,Change Mass,"[2]; FIG. 2D, RH 45.05 %, elapse time 786.5 min",0.060 wt %
same,Change Mass,"[2]; FIG. 2D, RH 45.17 %, elapse time 447.9 min",0.058 wt %
same,Change Mass,"[2]; FIG. 2D, RH 49.96 %, elapse time 597.5 min",0.063 wt %
same,Change Mass,"[2]; FIG. 2D, RH 49.98 %, elapse time 258.7 min",0.068 wt %
same,Change Mass,"[2]; FIG. 2D, RH 50.04 %, elapse time 775.5 min",0.067 wt %
same,Change Mass,"[2]; FIG. 2D, RH 50.07 %, elapse time 438.8 min",0.065 wt %
same,Change Mass,"[2]; FIG. 2D, RH 54.98 %, elapse time 606.5 min",0.070 wt %
same,Change Mass,"[2]; FIG. 2D, RH 55.01 %, elapse time 269.7 min",0.076 wt %
same,Change Mass,"[2]; FIG. 2D, RH 55.07 %, elapse time 427.8 min",0.073 wt %
same,Change Mass,"[2]; FIG. 2D, RH 55.14 %, elapse time 764.5 min",0.074 wt %
same,Change Mass,"[2]; FIG. 2D, RH 59.95 %, elapse time 278.7 min",0.084 wt %
same,Change Mass,"[2]; FIG. 2D, RH 59.95 %, elapse time 617.5 min",0.078 wt %
same,Change Mass,"[2]; FIG. 2D, RH 60.08 %, elapse time 416.8 min",0.081 wt %
same,Change Mass,"[2]; FIG. 2D, RH 60.16 %, elapse time 753.5 min",0.082 wt %
same,Change Mass,"[2]; FIG. 2D, RH 64.91 %, elapse time 628.5 min",0.086 wt %
same,Change Mass,"[2]; FIG. 2D, RH 64.92 %, elapse time 289.7 min",0.091 wt %
same,Change Mass,"[2]; FIG. 2D, RH 65.11 %, elapse time 742.5 min",0.090 wt %
same,Change Mass,"[2]; FIG. 2D, RH 65.16 %, elapse time 405.8 min",0.090 wt %
same,Change Mass,"[2]; FIG. 2D, RH 69.88 %, elapse time 300.7 min",0.099 wt %
same,Change Mass,"[2]; FIG. 2D, RH 69.98 %, elapse time 639.5 min",0.094 wt %
same,Change Mass,"[2]; FIG. 2D, RH 70.09 %, elapse time 394.8 min",0.099 wt %
same,Change Mass,"[2]; FIG. 2D, RH 70.18 %, elapse time 731.5 min",0.098 wt %
same,Change Mass,"[2]; FIG. 2D, RH 74.63 %, elapse time 648.5 min",0.103 wt %
same,Change Mass,"[2]; FIG. 2D, RH 74.64 %, elapse time 309.7 min",0.108 wt %
same,Change Mass,"[2]; FIG. 2D, RH 75.39 %, elapse time 383.8 min",0.109 wt %
same,Change Mass,"[2]; FIG. 2D, RH 75.48 %, elapse time 720.5 min",0.109 wt %
same,Change Mass,"[2]; FIG. 2D, RH 79.56 %, elapse time 318.7 min",0.119 wt %
same,Change Mass,"[2]; FIG. 2D, RH 79.66 %, elapse time 657.5 min",0.113 wt %
same,Change Mass,"[2]; FIG. 2D, RH 80.45 %, elapse time 374.8 min",0.124 wt %
same,Change Mass,"[2]; FIG. 2D, RH 80.45 %, elapse time 711.5 min",0.123 wt %
same,Change Mass,"[2]; FIG. 2D, RH 84.45 %, elapse time 666.5 min",0.128 wt %
same,Change Mass,"[2]; FIG. 2D, RH 84.52 %, elapse time 327.8 min",0.134 wt %
same,Change Mass,"[2]; FIG. 2D, RH 85.43 %, elapse time 702.5 min",0.152 wt %
same,Change Mass,"[2]; FIG. 2D, RH 85.47 %, elapse time 365.8 min",0.155 wt %
same,Change Mass,"[2]; FIG. 2D, RH 89.51 %, elapse time 336.8 min",0.152 wt %
same,Change Mass,"[2]; FIG. 2D, RH 89.63 %, elapse time 675.5 min",0.147 wt %
same,Change Mass,"[2]; FIG. 2D, RH 90.09 %, elapse time 356.8 min",0.168 wt %
same,Change Mass,"[2]; FIG. 2D, RH 90.20 %, elapse time 693.5 min",0.164 wt %
same,Change Mass,"[2]; FIG. 2D, RH 94.80 %, elapse time 347.8 min",0.183 wt %
same,Change Mass,"[2]; FIG. 2D, RH 94.89 %, elapse time 684.5 min",0.175 wt %
same,Change Mass,"[2]; FIG. 2E, RH 19.69 %, elapse time 383.8 min",0.012 wt %
same,Change Mass,"[2]; FIG. 2E, RH 24.95 %, elapse time 392.9 min",0.018 wt %
same,Change Mass,"[2]; FIG. 2E, RH 29.81 %, elapse time 401.9 min",0.024 wt %
same,Change Mass,"[2]; FIG. 2E, RH 34.97 %, elapse time 412.9 min",0.032 wt %
same,Change Mass,"[2]; FIG. 2E, RH 39.81 %, elapse time 421.9 min",0.038 wt %
same,Change Mass,"[2]; FIG. 2E, RH 44.97 %, elapse time 432.9 min",0.044 wt %
same,Change Mass,"[2]; FIG. 2E, RH 45.03 %, elapse time 627.0 min",0.046 wt %
same,Change Mass,"[2]; FIG. 2E, RH 49.81 %, elapse time 441.9 min",0.051 wt %
same,Change Mass,"[2]; FIG. 2E, RH 50.10 %, elapse time 618.0 min",0.052 wt %
same,Change Mass,"[2]; FIG. 2E, RH 54.81 %, elapse time 450.9 min",0.059 wt %
same,Change Mass,"[2]; FIG. 2E, RH 55.04 %, elapse time 609.0 min",0.059 wt %
same,Change Mass,"[2]; FIG. 2E, RH 59.91 %, elapse time 461.9 min",0.066 wt %
same,Change Mass,"[2]; FIG. 2E, RH 60.10 %, elapse time 598.0 min",0.067 wt %
same,Change Mass,"[2]; FIG. 2E, RH 64.88 %, elapse time 472.9 min",0.074 wt %
same,Change Mass,"[2]; FIG. 2E, RH 65.19 %, elapse time 586.9 min",0.075 wt %
same,Change Mass,"[2]; FIG. 2E, RH 69.81 %, elapse time 483.9 min",0.082 wt %
same,Change Mass,"[2]; FIG. 2E, RH 70.16 %, elapse time 575.9 min",0.083 wt %
same,Change Mass,"[2]; FIG. 2E, RH 74.59 %, elapse time 492.9 min",0.090 wt %
same,Change Mass,"[2]; FIG. 2E, RH 75.44 %, elapse time 564.9 min",0.092 wt %
same,Change Mass,"[2]; FIG. 2E, RH 79.63 %, elapse time 501.9 min",0.100 wt %
same,Change Mass,"[2]; FIG. 2E, RH 80.52 %, elapse time 555.9 min",0.105 wt %
same,Change Mass,"[2]; FIG. 2E, RH 84.55 %, elapse time 510.9 min",0.112 wt %
same,Change Mass,"[2]; FIG. 2E, RH 85.39 %, elapse time 546.9 min",0.126 wt %
same,Change Mass,"[2]; FIG. 2E, RH 89.85 %, elapse time 519.9 min",0.127 wt %
same,Change Mass,"[2]; FIG. 2E, RH 90.10 %, elapse time 537.9 min",0.137 wt %
same,Change Mass,"[2]; FIG. 2E, RH 94.52 %, elapse time 528.9 min",0.149 wt %
same,thermodynamic stability of crystal form (conversion to other polymorphs or amorphous form),[3],not substantially converting to other polymorphs or amorphous form
